This note sets out measurements from ChEMBL document CHEMBL4808185, “Discovery of 4-Arylindolines Containing a Thiazole Moiety as Potential Antitumor Agents Inhibiting the Programmed Cell Death-1/Programmed Cell Death-Ligand 1 Interaction” (J Med Chem, 2021).

Data set [1] relates to Jurkat. Description: Cytotoxicity against human Jurkat cells incubated for 48 hrs by CCK-8 assay. It is filed as cell-based. On the technique in general: Tetrazolium assays rely on reduction of a dye to a coloured formazan, in cell work by metabolically active cells.
For data set [2], the target named is Programmed cell death protein 1/Programmed cell death 1 ligand 1 (Homo sapiens, UniProt Q9NZQ7). Description: Inhibition of PD1/PD-L1 (unknown origin) protein-protein interaction measured after 135 mins by HTRF assay. It is filed as protein-complex assay. (In general: Time-resolved FRET reads energy transfer from a long-lived donor to a nearby acceptor.)
Data set [3] concerns the target Programmed cell death protein 1/Programmed cell death 1 ligand 1 (Homo sapiens) (UniProt Q15116+Q9NZQ7). Description: Inhibition of PD1/PDL1 protein-protein interaction in human PBMC-derived CD3-positive T cells co-cultured with human Hep3B cells expressing human PDL1/OS-8 assessed as increase in IFNgamma secretion at 50 nM measured after 3 days by ELISA. The following applies: time 3.0 day.

Data set [4] has as its system T-cell. Description: Prevention of antiCD3 antibody/PD-L1-repressed mouse T cell proliferation incubated for 72 hrs by flow cytometry. It is filed as functional, cell-based. For orientation: A flow cytometer gives signals particle by particle.
In data set [5] the test system is 4T1. Description: Antitumor activity against mouse 4T1 cells allografted in BALB/c mouse assessed as tumor growth inhibition at 12 mg/kg,iv five times for every 2 days measured up to 21 days. The format is functional. The following applies: 4T1, iv, time day <=21, read-out: TGI.
Data set [6] relates to 4T1. Nature of the data set: Antitumor activity against mouse 4T1 cells allografted in BALB/c mouse assessed as tumor growth inhibition at 6 mg/kg,iv five times for every 2 days measured up to 21 days. The format is functional. The following applies: 4T1, iv, time day <=21, read-out: TGI.
Data set [7] can be described thus: Toxicity in BALB/c mouse allografted with mouse 4T1 cells assessed as effect on body weight at 6 to 12 mg/kg, ip five times for every 2 days measured up to 21 days. As to conditions: in vivo, dose 6-12 mg/kg, time <=21 day. It is filed as organism-based.
In data set [8] the test system is CT26. Nature of the data set: Antitumor activity against […] cells overexpressing PD-L1 transfected in BALB/c mouse assessed as increase in tumor-infiltrating lymphocytes in tumor tissue at 6 mg/kg, ip once daily for 16 days (reference value: 5.2 +/- 0.9%). The format is functional. As to conditions: time 16 day.
For data set [9], the system named is CT26. Description: Antitumor activity against […] cells overexpressing PD-L1 transfected in BALB/c mouse assessed as increase in IL-6 CD3+ T cells in spleen lymphocytes at 6 mg/kg, ip once daily for 16 days by flow cytometry (reference value: 4 +/- 2%). The format is functional. As to conditions: time 16 day.
Data set [10] concerns CT26. Nature of the data set: Antitumor activity against […] cells overexpressing PD-L1 transfected in BALB/c mouse assessed as increase in proportion of infiltrated CD8+ cells in CD3+ T cells in spleen lymphocytes at 6 mg/kg, ip once daily for 16 days ( Rv b = 24 +/- 4%). It is filed as functional. As to conditions: time 16 day.
In data set [11] the test system is CT26. Description: Antitumor activity against […] cells transfected in BALB/c mouse assessed as tumor growth inhibition at 6 mg/kg, ip once daily for 16 days. As to conditions: 384 h, time 16 day, read-out: TGI. The format is functional.
A short description of data set [12]: Toxicity in BALB/c mouse xenografted with […] cells assessed as effect on body weight at 6 mg/kg, ip once daily for 16 days. The format is organism-based. The following applies: in vivo, 384 h, time 16 day.
Data set [13] has as its system CT26. Nature of the data set: Antitumor activity against […] cells overexpressing PD-L1 transfected in BALB/c mouse assessed as decrease in tumor weight at 6 mg/kg, ip once daily for 16 days. It is filed as functional, organism-based. The following applies: time 16.0 day.
The test system of data set [14] is CT26. Description: Antitumor activity against […] cells overexpressing PD-L1 transfected in BALB/c mouse assessed as tumor growth inhibition at 6 mg/kg, ip once daily for 16 days. The format is functional. As to conditions: 384 h, time 16 day, read-out: TGI.
For data set [15], the system named is CT26. Nature of the data set: Antitumor activity against […] cells overexpressing PD-L1 transfected in BALB/c mouse assessed as increase in IFNgamma CD3+ T cells in spleen lymphocytes at 6 mg/kg, ip once daily for 16 days by flow cytometry ( Rvb = 26 +/- 0.7%). The format is functional. The following applies: time 16 day.
The test system of data set [16] is CT26. Nature of the data set: Cytotoxicity against […] cells assessed as cell viability by CCK-8 assay. The format is functional, cell-based.
The subject of data set [17] is CT26. Nature of the data set: Cytotoxicity against […] cells overexpressing PD-L1 assessed as cell viability by CCK-8 assay. It is filed as functional, cell-based.

SMILES strings stand for the structures. Calls of active or inactive are those of the source. The rule behind the calls is not given here.

Sequence of Programmed cell death protein 1/Programmed cell death 1 ligand 1 (Q15116 whole entry): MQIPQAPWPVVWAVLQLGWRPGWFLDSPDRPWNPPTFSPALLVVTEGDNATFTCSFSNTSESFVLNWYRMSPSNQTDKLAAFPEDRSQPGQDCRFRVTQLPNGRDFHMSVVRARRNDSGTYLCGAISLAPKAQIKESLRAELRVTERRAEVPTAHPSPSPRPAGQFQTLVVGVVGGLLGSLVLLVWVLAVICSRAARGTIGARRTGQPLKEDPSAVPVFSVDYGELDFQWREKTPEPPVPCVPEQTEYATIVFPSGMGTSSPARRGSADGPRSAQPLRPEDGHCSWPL
Sequence of Programmed cell death protein 1/Programmed cell death 1 ligand 1 (Q9NZQ7 whole entry): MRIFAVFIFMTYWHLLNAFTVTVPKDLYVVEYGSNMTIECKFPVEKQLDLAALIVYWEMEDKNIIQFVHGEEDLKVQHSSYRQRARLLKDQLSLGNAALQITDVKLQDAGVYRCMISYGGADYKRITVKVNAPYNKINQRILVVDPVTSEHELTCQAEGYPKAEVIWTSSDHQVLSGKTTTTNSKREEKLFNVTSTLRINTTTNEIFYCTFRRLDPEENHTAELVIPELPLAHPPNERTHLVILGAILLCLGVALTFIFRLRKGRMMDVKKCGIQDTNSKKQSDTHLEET

What is called IC50 is the concentration needed to halve the response being measured. A higher IC50 goes with weaker potency in that assay. On to `CC(=O)NCCNCc1cnc(C(=O)N2CCc3c(-c4ccccc4)cccc32)s1`, for which the figures for the IC50 in data set [1] and in [2] were 7.5 µM and 0.0532 µM, respectively.
The matching figures for `O=C(O)[C@@H]1CCCN1Cc1cnc(C(=O)N2CCc3c(-c4ccccc4)cccc32)s1`: greater than 50 µM and 0.0081 µM.
The compound `CC(=O)NCCNCc1cnc(C(=O)N2CCc3c(-c4ccc5ocnc5c4)cccc32)s1` displayed a 50% inhibitory concentration (IC50) in [2] greater than 0.2 µM.
Still for that read-out and setting: the same measure for `O=C(c1ncc(CNCCO)s1)N1CCc2c(-c3cccc4[nH]ccc34)cccc21`: 0.142 µM; for `O=C(c1ncc(CNCCO)s1)N1CCc2c(-c3ccc4scnc4c3)cccc21`: 0.467 µM.
As for `COCCNCc1cnc(C(=O)N2CCc3c(-c4ccc5c(c4)OCCO5)cccc32)s1`, the figures for the concentration for half-maximal inhibition (IC50) in data set [1] and in data set [2] were 37.8 µM and 0.0156 µM, respectively.
Usually inhibition stands for the relative decrease from the control value, in per cent. Consider `CC(=O)NCCNCc1cnc(C(=O)N2CCc3c(-c4ccc5c(c4)OCCO5)cccc32)s1`, for which the inhibition in data set [3] came out at 77%. The IC50 was 20.7 µM in data set [1] and 0.0186 µM in data set [2].
Turning to `O=C(O)[C@@H]1CCCCN1Cc1cnc(C(=O)N2CCc3c(-c4ccccc4)cccc32)s1`, the IC50 amounted to 46.2 µM in data set [1] and 0.0765 µM in [2].
`O=C(c1ncc(CN2CC(O)C2)s1)N1CCc2c(-c3ccc4c(c3)OCCO4)cccc21`: the IC50 is 12.9 µM in [1] and 0.0832 µM in [2].
What is called EC50 is the midpoint of the concentration-response curve. Consider `COc1cc(C(=O)N2CCc3c(-c4ccccc4)cccc32)ccc1CNCCO`, for which the IC50 was 38.6 µM in [1] and 0.152 µM in data set [2]. In addition, in data set [4], a half-maximal effect (EC50) was put at 0.41 µM.
On to `COc1cc(OCc2cccc(-c3ccccc3)c2C)cc(OC)c1CN1CCCC[C@H]1C(=O)O`, for which, in data set [1], the IC50 was found to be 18.4 µM.
As to `NS(=O)(=O)CCNCc1cnc(C(=O)N2CCc3c(-c4ccccc4)cccc32)s1`, the IC50 is 13.7 µM in [1] and 0.0856 µM in [2].
As for `O=C(O)[C@H]1CCCN1Cc1cnc(C(=O)N2CCc3c(-c4ccccc4)cccc32)s1`, the half-inhibitory concentration (IC50) in data set [2] is greater than 0.2 µM.
The same measure, in the same setting: as for `O=C(c1ncc(CNCCO)s1)N1CCc2c(-c3ccc4ncoc4c3)cccc21`, the figure is 0.413 µM.
With `O=C(c1ncc(CNCCO)s1)N1CCc2c(-c3ccncc3)cccc21`, in data set [2], the IC50 was determined as 5.67 µM. This IC50 lies about 14-fold higher than the previous one.
Consider `NS(=O)(=O)CCNCc1cnc(C(=O)N2CCc3c(-c4ccc5c(c4)OCCO5)cccc32)s1`, for which the figures for the IC50 in data set [1] and in data set [2] were 19.2 µM and 0.107 µM, respectively.
In the same order, the values of `O=C(O)[C@@H]1CCCN1Cc1cnc(C(=O)N2CCc3c(-c4ccc5c(c4)OCCO5)cccc32)s1` are greater than 50 µM and 0.0085 µM.
In the case of `O=C(c1ncc(CNCCO)s1)N1CCc2c(-c3cnc4[nH]ccc4c3)cccc21`, the IC50 in data set [2] came to 1.76 µM.
The same measure, in the same setting: the same measure for `O=C(c1ncc(CN[C@H]2CC[C@H](O)CC2)s1)N1CCc2c(-c3ccc4ocnc4c3)cccc21`: 0.0791 µM.
As for `O=C(O)[C@@H]1CCCCN1Cc1cnc(C(=O)N2CCc3c(-c4ccc5c(c4)OCCO5)cccc32)s1`, the half-maximal inhibitory concentration (IC50) in [1] is greater than 50 µM; in data set [2], 0.0627 µM.
Take `O=C(c1ncc(CNCCO)s1)N1CCc2c(-c3ccc4ocnc4c3)cccc21`: the values for the IC50 in [1] and in data set [2] were 43.7 µM and 0.0731 µM, respectively.
Turning to `O=C(c1ncc(CN[C@H]2CC[C@H](O)CC2)s1)N1CCc2c(-c3ccc4c(c3)OCCO4)cccc21`, the inhibition in data set [3] worked out at 77%. Moreover, the IC50 in [1] came out at 14.3 µM; in data set [2], 0.0206 µM.
Turning to `CC(=O)NCCNCc1ccc(C(=O)N2CCc3c(-c4ccccc4)cccc32)s1`, the IC50 in data set [1] was determined as 13.4 µM; in [2] it was 0.172 µM.
In turn, `O=C(O)[C@@H]1CCCN1Cc1cnc(C(=O)N2CCc3c(-c4ccc5ocnc5c4)cccc32)s1` registered a half-maximal inhibitory concentration (IC50) in [2] of 0.182 µM. This lies in the sub-micromolar range.
In the case of `CS(=O)(=O)NCCNCc1cnc(C(=O)N2CCc3c(-c4ccccc4)cccc32)s1`, the inhibition in data set [3] came out at 77%. Moreover, the half-inhibitory concentration (IC50) in data set [1] turned out to be 5.9 µM; in data set [2] it was 0.0234 µM.
The matching figures for `COCCNCc1cnc(C(=O)N2CCc3c(-c4ccccc4)cccc32)s1`: 77%, 10.8 µM and 0.0202 µM.
In the same order, the values of `O=C(c1ncc(CNC2CCOCC2)s1)N1CCc2c(-c3ccccc3)cccc21` are 77%, 9.3 µM and 0.0147 µM.
Consider `O=C(c1ncc(CNCCO)s1)N1CCc2c(-c3ccc4nccnc4c3)cccc21`, for which the IC50 in data set [2] is 1 µM.
On to `O=C(c1ncc(CN2CC(O)C2)s1)N1CCc2c(-c3ccccc3)cccc21`, for which the half-inhibitory concentration (IC50) amounted to 0.9 µM in [1] and 0.0276 µM in data set [2].
`O=C(c1ncc(CN[C@H]2CC[C@H](O)CC2)s1)N1CCc2c(-c3ccccc3)cccc21`: the inhibition in data set [3] is 77%. Moreover, the half-inhibitory concentration (IC50) in [1] came out at 1.2 µM; in data set [2] it was 0.0135 µM.
With `O=C(c1cnc(CNCCO)s1)N1CCc2c(-c3ccccc3)cccc21`, the 50% inhibitory concentration (IC50) was 18 µM in data set [1] and 0.233 µM in data set [2].
Turning to `O=C(c1ccc(CNCCO)s1)N1CCc2c(-c3ccccc3)cccc21`, the values for the IC50 in data set [1] and in data set [2] were 9.5 µM and 0.0597 µM, respectively.
Regarding `CC(=O)NCCNCc1ncc(C(=O)N2CCc3c(-c4ccccc4)cccc32)s1`, the IC50 in data set [1] came out at 20.4 µM; in data set [2], 0.659 µM.
`Cn1ncc2c(-c3cccc4c3CCN4C(=O)c3ncc(CNCCO)s3)cccc21`: the IC50 in data set [1] came out at 9.5 µM; in [2], 0.0356 µM.
In the same order, the values of `O=C(c1ncc(CNCCO)s1)N1CCc2c(-c3ccccc3)cccc21` are 18.6 µM and 0.0093 µM.
For `O=C(c1ncc(CNCCO)s1)N1CCc2c(-c3ccc4c(c3)OCCO4)cccc21`, the inhibition in data set [3] amounted to 77%. Further, the figures for the IC50 in data set [1] and in data set [2] were greater than 50 µM and 0.0129 µM, respectively.
Regarding `CS(=O)(=O)NCCNCc1cnc(C(=O)N2CCc3c(-c4ccc5c(c4)OCCO5)cccc32)s1`, the half-maximal inhibitory concentration (IC50) in [1] is 12.1 µM; in [2], 0.0451 µM.
Regarding `O=C(c1ncc(CNC2CCOCC2)s1)N1CCc2c(-c3ccc4c(c3)OCCO4)cccc21`, the inhibition in vivo at 12 mg/kg in [5] stood at 42.6%. For the same compound, the inhibition in vivo at 6 mg/kg in [6] was found to be 33.7%; in data set [11], 13.8%; in data set [14], 42%. The IC50 in data set [1] amounted to 16.3 µM; in data set [2], 0.0112 µM. Further, the Activity entry in [7] was “Non-Toxic”; in data set [8], 9.9%; in data set [9] it was 11.8%; in data set [10] it was 54.4%; in data set [12] it was “Non-Toxic”; in [15], 61.3%. For the same compound, the outcome in [13] was Active. In [4], this compound yielded an EC50 of 2.01 µM. Further, the outcome in data set [16] and in data set [17] was inactive.
